Results reported in PMC11467737, “Osteocalcin binds to a GPRC6A Venus fly trap allosteric site to positively modulate GPRC6A signaling” (FASEB BioAdvances, 2024).

How the values were obtained:
[1] = test system: mouse model; parameters: method as in PMID 32147363; conditions: oral or intraperitoneal administration to a mouse model; cited from earlier work
[2] = test system: GPRC6A; parameters: method as in PMID 32147363; conditions: cited from earlier work
[3] = target: T1, human GPRC6A isoform 2 (Homo sapiens, UniProt Q5T6X5); experiment: cAMP accumulation in HEK-293 cells transfected with human GPRC6A isoform 2; format: cell-based; conditions: HEK-293 transfected with GPRC6A isoform 2; presence of 1 mM calcium; 40 min; Figure 2A
T1 construct: expressed in transfected cells; host or cells: HEK-293
T1 sequence (Q5T6X5 19-751 isoform Q5T6X5-2 limits assumed): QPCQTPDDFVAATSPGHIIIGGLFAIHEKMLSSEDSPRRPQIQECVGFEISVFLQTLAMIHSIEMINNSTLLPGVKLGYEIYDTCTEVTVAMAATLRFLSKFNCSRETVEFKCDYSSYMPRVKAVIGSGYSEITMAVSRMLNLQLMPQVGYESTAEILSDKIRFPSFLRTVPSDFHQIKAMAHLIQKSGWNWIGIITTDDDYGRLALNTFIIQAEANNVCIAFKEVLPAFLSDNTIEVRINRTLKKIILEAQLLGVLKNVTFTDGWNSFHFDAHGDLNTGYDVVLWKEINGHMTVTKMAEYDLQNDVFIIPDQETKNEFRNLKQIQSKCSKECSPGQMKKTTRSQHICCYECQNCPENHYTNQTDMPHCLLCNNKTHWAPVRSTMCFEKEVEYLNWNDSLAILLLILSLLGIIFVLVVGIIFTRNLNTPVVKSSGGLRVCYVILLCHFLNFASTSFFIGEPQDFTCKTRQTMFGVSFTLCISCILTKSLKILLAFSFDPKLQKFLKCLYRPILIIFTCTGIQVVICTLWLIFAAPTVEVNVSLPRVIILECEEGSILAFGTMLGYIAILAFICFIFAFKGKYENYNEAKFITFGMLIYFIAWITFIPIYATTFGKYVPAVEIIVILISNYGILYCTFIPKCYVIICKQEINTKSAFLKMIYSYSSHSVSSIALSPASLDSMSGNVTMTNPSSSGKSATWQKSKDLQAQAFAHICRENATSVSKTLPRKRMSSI
Protocol: (§1) HEK‐293 transfected with human GPRC6A isoform cDNA plasmids cells (10^5 cells/well)[30] were cultured in 24‐well plates in DMEM supplemented with 10% fetal bovine serum and 1% penicillin/streptomycin (100 U/mL of penicillin and 100 μg/mL of streptomycin) for 48 h followed by 4 h incubation in DMEM/F12 containing 0.1% BSA and 0.5 mM IBMX to achieve quiescence and preventing cAMP degradation. Quiescent cells were treated with vehicle control, various ligands at concentration as indicated for 40 min at 37°C. Then, the reaction was stopped, and the cells lysed with 0.5 mL 0.1 N HCl. cAMP levels were measured by using Cyclic AMP EIA kit (Cayman Chemical; Ann Arbor, MA, USA) following the manufacture's protocol.

[4] = target: T2, human GPRC6A isoform 3 (Homo sapiens, UniProt Q5T6X5); experiment: cAMP accumulation in HEK-293 cells transfected with human GPRC6A isoform 3; format: cell-based; conditions: HEK-293 transfected with GPRC6A isoform 3, 40 min
T2 construct: expressed in transfected cells; host or cells: HEK-293
T2 sequence (Q5T6X5 19-855 isoform Q5T6X5-3 limits assumed): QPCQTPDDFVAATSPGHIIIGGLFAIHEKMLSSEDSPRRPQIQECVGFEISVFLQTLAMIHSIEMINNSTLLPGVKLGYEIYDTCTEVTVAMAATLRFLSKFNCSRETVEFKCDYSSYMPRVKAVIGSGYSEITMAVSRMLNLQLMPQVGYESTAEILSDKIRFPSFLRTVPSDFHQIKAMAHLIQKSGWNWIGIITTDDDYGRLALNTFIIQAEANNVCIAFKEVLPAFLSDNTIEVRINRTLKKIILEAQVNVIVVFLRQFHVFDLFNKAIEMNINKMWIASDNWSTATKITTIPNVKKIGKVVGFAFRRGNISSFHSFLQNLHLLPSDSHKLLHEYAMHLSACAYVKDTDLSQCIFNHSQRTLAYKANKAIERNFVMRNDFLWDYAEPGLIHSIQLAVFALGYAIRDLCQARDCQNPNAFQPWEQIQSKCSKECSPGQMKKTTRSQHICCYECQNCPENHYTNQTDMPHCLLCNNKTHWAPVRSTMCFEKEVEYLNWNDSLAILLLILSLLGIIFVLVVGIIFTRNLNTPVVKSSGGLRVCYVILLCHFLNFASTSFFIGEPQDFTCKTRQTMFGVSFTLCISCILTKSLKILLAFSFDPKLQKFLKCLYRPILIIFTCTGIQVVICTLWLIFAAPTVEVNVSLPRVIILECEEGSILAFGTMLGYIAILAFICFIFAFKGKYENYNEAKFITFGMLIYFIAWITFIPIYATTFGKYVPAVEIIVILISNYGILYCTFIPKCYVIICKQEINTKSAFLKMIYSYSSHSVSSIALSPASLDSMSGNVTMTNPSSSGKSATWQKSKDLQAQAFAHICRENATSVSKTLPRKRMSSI
Protocol: as §1

[5] = target: T3, human GPRC6A isoform 1 (Homo sapiens, UniProt Q5T6X5); experiment: ERK activation (phospho-ERK/total ERK ELISA) in HEK-293 cells transfected with human GPRC6A isoform 1 (wild-type); format: cell-based; conditions: fragments at 20 nM; HEK-293 with pcDNA3-hGPRC6A; 15 min; Figure 3B / S5B
T3 construct: expressed in transfected cells; host or cells: HEK-293, pcDNA3-hGPRC6A
T3 sequence (Q5T6X5 19-926): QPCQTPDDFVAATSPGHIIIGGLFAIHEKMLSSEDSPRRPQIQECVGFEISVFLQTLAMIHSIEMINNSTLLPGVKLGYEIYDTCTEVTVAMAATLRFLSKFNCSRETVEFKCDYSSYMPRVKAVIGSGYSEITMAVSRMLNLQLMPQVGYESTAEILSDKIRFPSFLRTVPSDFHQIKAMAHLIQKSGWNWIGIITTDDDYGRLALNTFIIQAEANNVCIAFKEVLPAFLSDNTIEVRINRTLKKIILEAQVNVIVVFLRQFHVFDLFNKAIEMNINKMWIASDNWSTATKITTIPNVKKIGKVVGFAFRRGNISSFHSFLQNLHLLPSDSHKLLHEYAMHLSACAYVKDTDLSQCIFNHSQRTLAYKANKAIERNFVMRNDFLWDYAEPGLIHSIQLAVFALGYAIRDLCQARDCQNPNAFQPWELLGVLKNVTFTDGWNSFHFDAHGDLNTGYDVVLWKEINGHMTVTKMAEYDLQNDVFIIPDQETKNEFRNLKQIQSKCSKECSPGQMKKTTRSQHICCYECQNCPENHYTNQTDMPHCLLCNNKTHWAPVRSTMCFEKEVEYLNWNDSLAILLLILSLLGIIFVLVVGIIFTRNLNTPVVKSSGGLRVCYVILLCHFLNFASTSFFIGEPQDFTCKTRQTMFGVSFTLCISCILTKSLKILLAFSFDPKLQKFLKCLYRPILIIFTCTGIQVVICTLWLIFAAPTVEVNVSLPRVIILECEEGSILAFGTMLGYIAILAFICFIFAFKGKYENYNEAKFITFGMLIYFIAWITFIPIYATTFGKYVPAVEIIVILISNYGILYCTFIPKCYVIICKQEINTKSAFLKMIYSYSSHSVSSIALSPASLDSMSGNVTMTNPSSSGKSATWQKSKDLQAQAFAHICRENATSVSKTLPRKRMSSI
Protocol: All culture reagents were from Invitrogen (Waltham, MA, USA). Human embryonic kidney HEK‐293 cells were obtained from American Type Culture Collection and cultured in DMEM medium supplemented with 10% fetal bovine serum and 1% Penicillin/Streptomycin (P/S). Briefly, HEK‐293 cells transfected with/without human GPRC6A isoforms cDNA plasmids were starved by overnight incubation in serum‐free DMEM/F12 containing 0.1% bovine serum albumin (BSA) and stimulated with various ligands at different doses. […]

[6] = target: T3, human GPRC6A isoform 1; experiment: cAMP accumulation in HEK-293 cells transfected with human GPRC6A isoform 1 (wild-type, full length); format: cell-based; conditions: fragments at 20 nM; HEK-293 with pcDNA3-hGPRC6A; 40 min; Figure 3C / S5C
Protocol: as §1

WLGAPVPYPDPLEPR
Effect on fatty liver disease and insulin resistance [1]: improve fatty liver disease and insulin resistance | Activation of GPRC6A in vitro [2]: activate GPRC6A in vitro

N=C(N)NCCC[C@H](N)C(=O)O [L‐Arg, L‐Arginine]
L-Arg stimulation of cAMP accumulation [3]: loss of L‐Arg stimulation of cAMP | L-Arg stimulation of cAMP accumulation ([4]; presence of 1 mM calcium, Figure 2A): retained responsiveness

C[C@]12CC[C@H]3[C@@H](CCC4=CC(=O)CC[C@@]43C)[C@@H]1CC[C@@H]2O [testosterone]
Testosterone (T) activation, cAMP accumulation ([4]; Figure S4): loss responsive

APVPYPDPLEPR [Ocn 8–19, synthesized human Ocn fragment, 12 aa]
ERK phosphorylation by synthesized human Ocn fragments [5]: activated GPRC6A | cAMP accumulation by synthesized human Ocn fragments [6]: activated GPRC6A
